Assay results from patent US20200297749A1, “Methods and Pharmaceutical Composition for Modulation Polarization and Activation of Macrophages” (priority 2015, published 2020).
Residues, ends and D or L forms follow the SMILES beside them. *: point of attachment. Cbz = O=C(OCc1ccccc1)*

What was measured:
[1] = system: NLRP3; experiment: P2Y2-induced NLRP3 degradation in transfected 293T cells (western blot); assay type: cell-based; conditions: for NLRP3 degradation: pharmacological inhibition of SRC; for down regulation of NLRP3 by P2Y2: 293T cells co-expressing NLRP3 and GFP-P2Y2
Method: Cells were washed twice with PBS and lysed in appropriated buffer (250 mM NaCl, 0.1% NP-40, 5 mM EDTA, 10 mM Na3VO4, 10 mM NaF, 5 mM DTT, 3 mM Na4P207, 1 mM EGTA, 10 mM Glycerol phosphate, 10 mM Tris-Hcl (pH=7.5) and the protease and phosphatase inhibitors (Roche)). 10-40 μg of protein extracts were run on 4-12% or 10% SDS-PAGE and transferred at 4° C. onto a nitrocellulose membrane (0.2 Micron). After incubation for 2 hours at room temperature with 5% nonfat milk or BSA (Bovine Serum Albumine) in Tris-buffered saline and 0.1% Tween 20 (TBS-Tween), membranes were incubated with primary antibody at 4° C. overnight. […] The primary antibodies against GFP (D5.1), PYK2 (5E2). PYK2Y402*, SRC (36D10), SRCY416*, AMPKα (F6), AMPKT172* (40H9) and LC3A/B were obtained from Cell Signaling. Primary antibodies against IL-1β, CASP1, ASC (TMS1), IRF5, PNX1, Actin and GAPDH were purchased from Abcam. The primary antibodies anti-CAp24 (42-50) and anti-gp120 (2G12) were from NIH (AIDS Research and Reference Reagent Program, Division of AIDS, NIAID). Antibody anti-NLRP3 was from Adipogen (Cryo-2), anti-P2Y2 was from Alomone, anti-ubiquitin (P4D1) was from Santa-Cruz, anti-TOM20 and anti-Flag were from Sigma. For immunoprecipitations, cell pellets were lysed 6 hours after infection or 24 hours after transfection in CHAPS buffer (50 mM Tris-HCl (pH=7.5), 0.50 M NaCl and 0.1% CHAPS) containing protease and phosphatase inhibitors. Anti-NLRP3 (Origene), anti-P2Y2 (Abcam) antibodies were incubated overnight at 4° C. with the cell lysates. The complexes were precipitated by incubation with Protein G Sepharose™ 4 Fast Flow (GE Healthcare). For anti-Flag immunoprecipitations, anti-Flag® M2 affinity Gel (Sigma) were incubated for overnight at 4° C. with the cell lysates. […] Western blots shown are representative of at least of three independent experiments.

[2] = system: PMA-treated THP-1 macrophages stimulated with lipopolysaccharide and ATP (LPS+ATP); experiment: IL-1β secretion by LPS+ATP-stimulated PMA-treated THP-1 macrophages (ELISA); assay type: cell-based, Human; conditions: for IL-1β secretion: after stimulation with LPS+ATP; for IL-10 secretion: PMA-treated THP-1 macrophages, LPS+ATP, drug 100 μM during stimulation, FIG. 1a; for exacerbated IL-1β secretion of P2Y2-inhibited THP-1 macrophages: LPS+ATP stimulation, added 18 hours before
Method: (§1) Human THP-1 cells were cultured in RPMI 1640 media, supplemented with 10% FBS. THP-1 cells were differentiated by treatment for 3 hours with 100 nM phorbol-12-myristate-13-acetate (PMA, Invivogen). After 2 days THP-1 cells were stimulated first 3 hours with ultrapure LPS from E. coli (10 ng/ml, LPS) and then stimulated for 6 hours with ATP (5 mM, Sigma). Supernatants were used for cytokine assays and cell lysates for western blot analysis. Kaempferol (100 μM, Sigma), OxATP (100 μM, Sigma), Suramine (100 μM, Sigma), or Bafilomycine A1 ([…], TOCRIS) were added during LPS+ATP stimulation, while, PP1 (20 μM, Sigma), PP2 (20 μM, Sigma). MnTBAP (10 μM, Sigma) and NAC (100 μM, Sigma) 18 hours before LPS+ATP stimulations. Commercially available ELISA kits for […] (Ebioscience), IL-10 (BD) or LDH (Roche) were used according to the manufacturers' instructions.

[3] = system: HIV-1NL4-3; experiment: HIV-1 permissiveness of THP-1 monocytes (intracellular p24); assay type: cell-based; conditions: human monocytes THP-1
Method: (§2) Cells were washed twice with PBS and lysed in appropriated buffer (250 mM NaCl, 0.1% NP-40, 5 mM EDTA, 10 mM Na3VO4, 10 mM NaF, 5 mM DTT, 3 mM Na4P207, 1 mM EGTA, 10 mM Glycerol phosphate, 10 mM Tris-Hcl (pH=7.5) and the protease and phosphatase inhibitors (Roche)). 10-40 μg of protein extracts were run on 4-12% or 10% SDS-PAGE and transferred at 4° C. onto a nitrocellulose membrane (0.2 Micron). After incubation for 2 hours at room temperature with 5% nonfat milk or BSA (Bovine Serum Albumine) in Tris-buffered saline and 0.1% Tween 20 (TBS-Tween), membranes were incubated with primary antibody at 4° C. overnight. […] The primary antibodies against GFP (D5.1), PYK2 (5E2). PYK2Y402*, SRC (36D10), SRCY416*, AMPKα (F6), AMPKT172* (40H9) and LC3A/B were obtained from Cell Signaling. Primary antibodies against IL-1β, CASP1, ASC (TMS1), IRF5, PNX1, Actin and GAPDH were purchased from Abcam. The primary antibodies anti-CAp24 (42-50) and anti-gp120 (2G12) were from NIH (AIDS Research and Reference Reagent Program, Division of AIDS, NIAID). Antibody anti-NLRP3 was from Adipogen (Cryo-2), anti-P2Y2 was from Alomone, anti-ubiquitin (P4D1) was from Santa-Cruz, anti-TOM20 and anti-Flag were from Sigma. […]

[4] = system: NLRP3; experiment: NLRP3 ubiquitinylation/degradation in HIV-1NL4-3-infected THP-1 monocytes; assay type: cell-based, human; conditions: THP-1, HIV-1NL4-3 infection
Method: as §2

[5] = system: NLRP3 inflammasome; experiment: IL-1β maturation under P2Y2 inhibition; assay type: cell-based; conditions: P2Y2i alone
Method: as §2

[6] = system: LPS+ATP-stimulated PMA-treated THP-1 macrophages; experiment: Quantification of ROS production (H2DCFDA, MitoSOX); assay type: cell-based, Human; conditions: detectable with H2DCFDA or MitoSOX
Method: Mitochondria-associated ROS levels were measured by staining cells with H2DCFDA at 5 μM for 1 hour or with MitoSOX at 0.25 μM for 10 minutes at 37° C. Cells were then washed twice with HBSS solution and suspended in cold HBSS solution containing 1% FBS for FACS analysis^25.

[7] = system: LPS+ATP-stimulated PMA-treated THP-1 macrophages; experiment: Fragmentation of the mitochondrial network (TOM20, Mitotracker Green fluorescence microscopy); assay type: cell-based, Human; conditions: TOM20 or Mitotracker Green
Method: For immunofluorescence, cells were fixed in 2% paraformaldehyde-PBS for 5 minutes, permeabilized in 0.3% Triton (Sigma) in PBS, and incubated with PBS-FBS 20% for 1 hour, as previously described^39. Mitochondrial fragmentation and actin polymerization were analysed respectively using Mitotracker® Green FM (20 nM, Invitrogen) and Alexa Fluor 488 Phalloidin. For immunohistochemistry, 4-μm sections were cut from the paraffin blocks of the paraformaldehyde fixed tissues from mice, Macaca fascicularis or humans. After paraffin removal, slides were subjected to antigen retrieval by microwave boiling in 1 mmol/l EDTA pH 9.0. Slides were incubated with anti-P2Y2 (Alomone), anti-NLRP3 (Abcam), anti-CD163 (BD laboratories), anti-gp120 (2G12), anti-CD40 (BD laboratories) or anti-CASP1 p10 (Santa Cruz) overnight after permeabilization in 0.3% Triton for 5 minutes and saturation in PBS-FBS 20% for 1 hour. […] Cells were analysed by fluorescent confocal microscopy on Leica SPE (using a 63× objective). […] Mice alveolar macrophages were dissociated from lung (using Lung Dissociation kit from Miltenyi Biotech) and analysed using anti-CD11b (APC-Cy7) (BD laboratories), anti-CD11c (PE-Cy7) (BioLegend), anti-CD40 (eFluo710) (BioLegend), anti-F4/80 (FITC) (ebioscience) and anti-GR-1 (PE) (ebioscience).

[8] = system: M2 human monocyte derived macrophages (MDMs); experiment: M1 polarization assays in M2 monocyte derived macrophages; assay type: cell-based
Method: M2 MDMs that express at 100% the differentiation marker CD11b and the scavenger receptor M2 marker CD163 were then seeded (0.5×10^6/ml in macrophage medium+10% FBS), let to be attached on the plates for 2 hours at 37° C. before treatments with interferon γ (IFNγ) (1 μg/0.5×10^6 MDMs), kaempferol (100 μM) or DMSO for control cells. MDMs and supernatants were harvest for flow cytometry and confocal microscopy analysis at 24 hours post-kaempferol treatments and for cytokines IL-10 ELISA analyses at 96 hours post-kaempferol treatments. Expressions of CD163 and IRF5 were respectively determined by flow cytometry and western blot. Release of IL-1β and IL-10 was determined as indicated above by ELISA.

[9] = system: PMA-differentiated THP-1 macrophages stimulated with LPS+ATP; experiment: Viability / LDH release of LPS+ATP-stimulated THP-1 macrophages; assay type: cell-based, Human; conditions: in comparison with the control
Method: as §1

[10] = system: R5-tropic HIV-1BaL; experiment: HIV-1BaL replication in human MDMs (p24 release); assay type: cell-based

With `CC(C)(C)n1nc(-c2ccc(Cl)cc2)c2c(N)ncnc21` [PP2] the NLRP3 degradation [1] was “impaired”.
With `O=c1ccn([C@@H]2O[C@H](COP(=O)(O)OP(=O)(O)OP(=O)(O)OP(=O)(O)Oc3ccccc3)[C@@H](O)[C@H]2O)c(=O)[nH]1` [MRS2768] the IL-1β secretion [2] was “impaired”.
In the case of `O=C1C(=Cc2ccc([N+](=O)[O-])cc2)CS(=O)(=O)CC1=Cc1ccc([N+](=O)[O-])cc1` [G5], the “HIV-1 permissiveness (intracellular accumulation of p24)” value [3] is reported as “enhanced”, the “down regulation of NLRP3 by P2Y2” value [1] is reported as “partially inhibited” and the “ubiquitinylation/degradation of NLRP3” value [4] is reported as “increased”.
In the case of `O=c1c(O)c(-c2ccc(O)cc2)oc2cc(O)cc(O)c12` [kaempferol], the IL-1β maturation [5] is reported as “stimulation”, the “LPS+ATP-induced ROS production” value [6] is reported as “increased” and the “fragmentation of the mitochondrial network” value [7] is reported as “caused fragmentation”. The IL-10 secretion [2] was “increased”, the IL-10 secretion ([8]; M2 human MDMs, kaempferol 100 μM, FIG. 1c) was “increased” and the “secretion of the M2 cytokine interleukin-10 (IL-10)” value ([8]; MDMs, kaempferol 100 μM, 96 hours, FIG. 1e) was “reduced”. The IL-1β secretion ([8]; MDMs, kaempferol 100 μM, FIG. 1c) was “induction”, the M1 polarization ([8]; MDMs, kaempferol 100 μM, FIG. 1e) was “favoured the M1 polarization” and the “membrane expressions of the M2 markers such as CD163” value ([8]; flow cytometry, 24 hours post-kaempferol) was “diminished”. The “expression of IFN regulatory factor 5 (IRF5)” value ([8]; western blot) was “increased” and the “viability (cell death, pyroptosis)” value [9] was “lost their viability”.
In the case of `CC(=O)N[C@@H](CS)C(=O)O` [N-Acetyl Cysteine], the “exacerbated IL-1β secretion of P2Y2-inhibited THP-1 macrophages” value [2] is reported as “blunted”.
In the case of `Cc1ccc(C(=O)Nc2ccc(S(=O)(=O)O)c3cc(S(=O)(=O)O)cc(S(=O)(=O)O)c23)cc1NC(=O)c1cccc(NC(=O)Nc2cccc(C(=O)Nc3cc(C(=O)Nc4ccc(S(=O)(=O)O)c5cc(S(=O)(=O)O)cc(S(=O)(=O)O)c45)ccc3C)c2)c1` [suramin], the IL-10 secretion [2] is reported as “increased”.
For `Nc1ncnc2c1ncn2[C@@H](C=O)O[C@@H](C=O)COP(=O)(O)OP(=O)(O)OP(=O)(O)O` [oxidized ATP], the IL-1β secretion [2] was “inhibited”.
In the case of `CC(C)C[C@@H](C=O)NC(=O)[C@H](CC(C)C)NC(=O)[C@H](CC(C)C)NC(=O)OCc1ccccc1` [MG132] (Cbz-Leu-Leu-Leu-aldehyde), the “down regulation of NLRP3 by P2Y2” value [1] is reported as “fully suppressed”.
For `O=C(O)c1ccc(/C2=C3\C=CC(=N3)/C(c3ccc(C(=O)O)cc3)=c3/cc/c4[n]3[Mn]([Cl])[n]3c2ccc3/C(c2ccc(C(=O)O)cc2)=C2/C=CC(=N2)\C=4c2ccc(C(=O)O)cc2)cc1` [MnTBAP], the “exacerbated IL-1β secretion of P2Y2-inhibited THP-1 macrophages” value [2] was “blunted”.
For `Cc1ccc(-c2nn(C(C)(C)C)c3ncnc(N)c23)cc1` [PP1], the NLRP3 degradation [1] was “impaired”.
With `O=c1nc2[nH]c(=O)[nH]c2c([O-])[nH]1.[Na+]` [MSU, monosodium urate crystals] the “p24 antigen release and replication of R5-tropic HIV-1BaL” value [10] was “reduced”.
